Values after ≈ are worked out from the molar mass of the structure shown. Like-named read-outs stand apart in the source and are kept apart here. Each block holds one compound with its values, some of them ahead of it.
What was measured:
[1] = tested on: vancomycin-resistant E. faecium (ATCC700221) (VREF); assay: Antimicrobial assay (MIC); type: cell-based
Description: (§1) Antimicrobial and anti-cancer tests were performed as in [80].

[2] = tested on: HCT-116 colon carcinoma cell line; assay: Cytotoxic assay on cancer cell line; type: cell-based
Description: as §1

[3] = molecular target: Catalytic subunit of cAMP-dependent protein kinase (cDPK) (Homo sapiens, UniProt P17612); assay: Thermal shift (thermal melt) assay, Sypro orange; type: binding, H. sapiens; settings: for Kd: approximate, computed from the thermal shift
Description: (§2) High throughput thermal shift assays were carried out following established guidelines (Additional file 1: Table S1). Protein melting curves were obtained from samples aliquoted in 96-well plates using a RealPlex quantitative PCR instrument from Eppendorf (Eppendorf, NY, USA), with Sypro orange dye from Invitrogen as the fluorescent probe. A uniform final concentration of 5 X (supplied as a 5000 X stock solution) was used in all experiments. The dye was excited at 465 nm and emission recorded at 580 nm using the instrument’s filters. A heating ramp of 1°C/min from 25°C to 74°C was used, and one data point acquired for each degree increment. For standardization, different buffers and pH were checked. Thereafter, 100 mM HEPES pH 7.3 and 150 mM NaCl were used in all unfolding experiments. The volume of each reaction was 20 μl, and appropriate dye and protein controls were included. All experiments were done with a minimum of two replicates, with the mean value considered for further analysis. Several drugs/small molecules interact with Sypro orange and lead to aberrant signal enhancements. An additional control to rule out drug-dye interaction was carried out with all the constituents kept constant except for the protein of interest. The protein/protein-drug curves were reported after subtracting the respective dye alone/drug-dye curves.
(§3) Each melting curve was assigned a quality score (Q), the ratio of the melting-associated increase in fluorescence (ΔFmelt) to the total fluorescence range (ΔFtotal). Q = 1 is a high-quality curve, while Q = 0 indicates no thermal transition. Though an arbitrary Q value cutoff was not applied to judge curve quality, the curves were manually curated with Q values reported. […] These were ignored (see Table 1).
(§4) Subsequent to standardization, (see SI Methods), the validity of the top 1% of […]^comb’s predictions on the test set of eight diverse proteins was examined. To be conservative, we focused only on those protein/ligand pairs showing single sigmoidal thermal transition curves. The fit to Boltzmann’s equation (Eq. 1) was employed to estimate the melting temperature from the observed intensity, I.
(§5) (4) I=Imin+Imax-Imin/1+e^Tm-T/a
(§6) Imin and Imax are the minimum and maximum intensities; a denotes the slope of the curve at the transition midpoint temperate, Tm. To estimate thermodynamic parameters, both van’t Hoff and Gibbs-Helmholtz analyses were done. To estimate the approximate ligand-binding affinity at Tm, Eq. (2) from reference was used with slight modifications; ΔCp is ignored.
(§7) (5) KLTm=exp-ΔH/R1/Tm-1/To/L
(§8) KL(Tm) is the ligand association constant and [L] is the free ligand concentration at Tm ([LTm] ~ [L]total, when [L]total > > the total concentration of protein. KD is the inverse of KL(Tm).
(§9) Thermal unfolding of the eight benchmark proteins was carried out in a 20 μl reaction mix with 100 mM HEPES pH 7.3, 150 mM NaCl, 5 X Sypro orange dye, 10 μM protein and 1 mM of all the predicted ligands.

[4] = molecular target: Nucleosome assembly protein 1 (NAP1) (Plasmodium knowlesi, UniProt A0A384KYS3); assay: Thermal shift (thermal melt) assay, Sypro orange; type: binding, P. knowlesi; settings: for Kd: approximate, computed from the thermal shift
Description: as §2, §3, §4, §5, §6, §7, §8, §9

[5] = molecular target: T1, Tryptophanyl tRNA synthetase (TrpRS) (Homo sapiens, UniProt P23381); assay: Thermal shift (thermal melt) assay, Sypro orange; type: binding, H. sapiens; settings: for ΔTm: in °C (unit assumed); for Q (quality score): ratio ΔFmelt/ΔFtotal
T1 sequence (P23381 1-471): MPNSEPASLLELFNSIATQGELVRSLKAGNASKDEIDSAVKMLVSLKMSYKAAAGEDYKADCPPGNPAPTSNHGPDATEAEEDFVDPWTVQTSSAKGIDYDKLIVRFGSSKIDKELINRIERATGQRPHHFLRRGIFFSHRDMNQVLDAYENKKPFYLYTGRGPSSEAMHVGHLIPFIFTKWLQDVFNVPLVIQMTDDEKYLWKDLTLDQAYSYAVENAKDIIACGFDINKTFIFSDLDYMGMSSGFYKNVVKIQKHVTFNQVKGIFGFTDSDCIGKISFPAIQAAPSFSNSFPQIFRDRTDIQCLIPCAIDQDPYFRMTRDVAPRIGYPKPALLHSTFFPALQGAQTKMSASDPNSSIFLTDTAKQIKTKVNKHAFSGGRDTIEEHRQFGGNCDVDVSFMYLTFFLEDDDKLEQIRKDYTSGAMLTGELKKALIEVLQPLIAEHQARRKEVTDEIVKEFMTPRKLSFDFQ
Description: as §2, with “The dye was excited at 465 nm and emission recorded at 580 nm using the instrument’s filters. A heating ramp of 1°C/min from 25°C to 74°C was used, and one data point acquired for each degree increment.” left out
(§10) Each melting curve was assigned a quality score (Q), the ratio of the melting-associated increase in fluorescence (ΔFmelt) to the total fluorescence range (ΔFtotal). Q = 1 is a high-quality curve, while Q = 0 indicates no thermal transition. Though an arbitrary Q value cutoff was not applied to judge curve quality, the curves were manually curated with Q values reported.
as §4, §5, §6, §7, §8, §9

[6] = molecular target: Ubiquitin conjugating enzyme (UCE) (Plasmodium falciparum, UniProt Q8I607); assay: Thermal shift (thermal melt) assay, Sypro orange; type: binding, P. falciparum; settings: for Kd: approximate, computed from the thermal shift, read-out: KD (Approx)
Description: as §2, §3, §4, §5, §6, §7, §8, §9

[7] = molecular target: E. coli dihydrofolate reductase (DHFR) (Escherichia coli, UniProt P0ABQ4); assay: biochemical; type: binding; settings: Table S3
Description: as §2, with “The dye was excited at 465 nm and emission recorded at 580 nm using the instrument’s filters. A heating ramp of 1°C/min from 25°C to 74°C was used, and one data point acquired for each degree increment.” left out
as §10, §4, §5, §6, §7, §8, §9

[8] = molecular target: T2, 1000006: catalytic domain of protein tyrosine phosphatase (2G59) (Homo sapiens, UniProt Q16827); assay: Thermal shift (thermal melt) assay, Sypro orange; type: binding, H. sapiens; settings: Table S4, protein 1000006
T2 construct: the catalytic domain of PTP from H. sapiens (PDB ID: 2G59) (1000006); New York structural genomics consortium (gift)
T2 sequence (Q16827 938-1195 limits assumed): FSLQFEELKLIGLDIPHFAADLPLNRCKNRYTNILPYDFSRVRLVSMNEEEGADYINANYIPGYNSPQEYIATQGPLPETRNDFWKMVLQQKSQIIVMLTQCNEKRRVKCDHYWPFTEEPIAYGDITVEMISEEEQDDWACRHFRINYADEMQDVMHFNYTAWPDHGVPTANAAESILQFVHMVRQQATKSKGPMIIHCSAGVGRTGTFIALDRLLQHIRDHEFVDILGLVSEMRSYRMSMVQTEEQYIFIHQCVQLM
Description: as §2, §3, §4, §5, §6, §7, §8, §9

[9] = thermal shift, 1 mM ligand, 10 μM protein
[10] = Table S4, TrpRS, computed from the thermal shifts obtained, read-out: KD (Approx)
[11] = approximate, computed from the thermal shift, read-out: KD
[12] = computed from the thermal shifts obtained, read-out: KD (Approx)

Chain of Nucleosome assembly protein 1 (NAP1) (A0A384KYS3 entry or part of it): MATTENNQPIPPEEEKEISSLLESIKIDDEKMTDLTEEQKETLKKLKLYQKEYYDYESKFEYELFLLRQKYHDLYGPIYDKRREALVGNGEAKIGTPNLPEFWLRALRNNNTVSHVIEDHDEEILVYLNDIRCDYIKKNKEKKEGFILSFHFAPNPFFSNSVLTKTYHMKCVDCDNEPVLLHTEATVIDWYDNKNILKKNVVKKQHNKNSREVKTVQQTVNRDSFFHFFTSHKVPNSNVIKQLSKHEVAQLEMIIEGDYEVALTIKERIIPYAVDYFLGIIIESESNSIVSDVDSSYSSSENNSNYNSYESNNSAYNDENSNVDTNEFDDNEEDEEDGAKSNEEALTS
Chain of Ubiquitin conjugating enzyme (UCE) (Q8I607 1-147): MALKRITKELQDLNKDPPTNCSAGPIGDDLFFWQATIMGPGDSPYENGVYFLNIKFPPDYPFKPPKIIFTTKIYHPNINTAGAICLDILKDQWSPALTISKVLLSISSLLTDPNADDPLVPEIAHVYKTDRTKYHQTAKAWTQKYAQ
Chain of E. coli dihydrofolate reductase (DHFR) (P0ABQ4 whole entry): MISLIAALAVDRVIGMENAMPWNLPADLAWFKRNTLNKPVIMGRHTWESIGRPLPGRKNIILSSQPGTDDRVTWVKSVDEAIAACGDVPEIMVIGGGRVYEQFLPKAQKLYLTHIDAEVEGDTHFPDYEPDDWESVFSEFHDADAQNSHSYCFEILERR

MIC ([1]; Enterococcus faecium, ATCC700221): 500 µg/mL (≈ 1100 µM)
VREF (MIC) ([1]; Table S3): 500 µg/mL
SMILES: CN(Cc1cnc2nc(N)nc(N)c2n1)c1ccc(C(=O)N[C@@H](CCC(=O)O)C(=O)O)cc1 [NSC 740, methotrexate]
IC50 ([2]; Homo sapiens, HCT-116, inhibitory concentration for 50% growth inhibition, read-out: HCT-116 (IC-50)): 0.048 µg/mL (≈ 0.106 µM)

Q (quality score of melting curve, ΔFmelt/ΔFtotal) [3]: 1.0
Kd ([3]; read-out: KD): 48.5 µM
Kd ([3]; read-out: KD (Approx)): 48.5 µM
ΔTm [3, 9]: 2.95 °C
SMILES: COc1ccc(-c2cc3ccccc3[nH]2)cc1 [NSC 27032]

SMILES: O=C1C[C@@H](c2ccc(O)cc2)Oc2cc(O)cc(O)c21 [NSC 34875]
Q (quality score of melting curve, ΔFmelt/ΔFtotal) [4]: 0.6
ΔTm ([4]; Table S5, 1 mM ligand): 1.74 °C
Kd ([4]; read-out: KD (Approx)): 224 µM

SMILES: O=C1c2cc(O)c(O)cc2OC(c2ccc(O)c(O)c2)C1O (stereo not drawn) [NSC 36398]
Q (quality score of melting curve, ΔFmelt/ΔFtotal) [4]: 0.2
Kd ([4]; read-out: KD): 180 µM
Kd ([4]; read-out: KD (Approx)): 180 µM
ΔTm [4, 9]: 2.21 °C

Kd [5, 10]: ~9.06 µM
ΔTm ([5]; Table S4, TrpRS): 9.9
Q (quality score) ([5]; Table S4, TrpRS): 0.4
Kd [5, 11]: ~9.1 µM
SMILES: O=C(Nc1cccc([N+](=O)[O-])c1)c1cc2ccccc2cc1O [NSC 37168]
HCT-116 (IC-50) ([2]; inhibitory concentration for 50% growth inhibition): 1.34 µg/mL

SMILES: O=C(Nc1ccc(Cl)cc1)c1cc2c(cc1O)[nH]c1ccccc12 [NSC 50651]
Q (quality score of melting curve, ΔFmelt/ΔFtotal) [6]: 0.13
ΔTm ([6]; Table S5, 1 mM ligand): 2.25 °C
Kd ([6]; listed as 50651): 197 µM
Kd ([6]; listed as NSC50651): 197 µM

SMILES: CCOc1ccc(NC(=O)c2cc3ccccc3cc2O)cc1 [NSC 50690]
Kd [7, 12]: ~463 µM
Q (quality score) ([7]; ratio ΔFmelt/ΔFtotal of the melting curve): 0.3
ΔTm ([7]; thermal shift, in °C (unit assumed)): 0.23
Kd [8, 12]: ~51.5 µM
ΔTm ([8]; in °C (unit assumed)): 4.59
Q (quality score) ([8]; ratio ΔFmelt/ΔFtotal): 0.8
Kd [5, 10]: ~7.74 µM
ΔTm ([5]; Table S4, TrpRS): 10.27
Q (quality score) ([5]; Table S4, TrpRS): 0.8
Kd [5, 11]: 7.7 µM

Reference: paper PMC4038399, “Experimental validation of [sequence]^comb virtual ligand screening results for eight proteins yields novel nanomolar and micromolar binders” (Journal of Cheminformatics, 2014)
